Counter-ions that a name gives are not always drawn.
Experiments:
[1] = biological target: T1, KRAS-G12D and SOS1 (Homo sapiens, UniProt P01116, G12D); assay: Inhibition of KRAS-G12D/SOS1 binding (Cisbio binding kit, 665/615 ratio), Effect Embodiment A; settings: read-out: GTP-KRAS-G12D:SOS1 IC50
T1 construct: purchased
Procedure, shortened: (§1)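 Duplicate wells received an eleven-point, threefold compound titration whose top point was the stock solution; final DMSO 1%.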

[2] = biological target: T2, KRAS_G12D and cRAF (Homo sapiens, UniProt P01116, G12D); assay: Inhibition of KRAS_G12D/cRAF binding (Cisbio binding kit, 665/615 ratio), Effect Embodiment B; settings: read-out: GTP-KRAS-G12D:CRAF IC50
T2 construct: purchased
T2 sequence (P01116 1-188 isoform P01116-2 G12D): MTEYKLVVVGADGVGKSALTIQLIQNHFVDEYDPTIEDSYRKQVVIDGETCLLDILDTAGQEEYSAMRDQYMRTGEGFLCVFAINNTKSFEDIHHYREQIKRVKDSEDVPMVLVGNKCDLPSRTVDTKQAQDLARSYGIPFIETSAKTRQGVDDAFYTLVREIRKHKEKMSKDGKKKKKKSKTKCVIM
Procedure, shortened: as §1

[3] = biological target: T3, KRAS_WT and SOS1 (Homo sapiens, UniProt P01116); assay: Inhibition of KRAS_WT/SOS1 binding (Cisbio binding kit, 665/615 ratio), Effect Embodiment C; settings: read-out: GTP-KRAS-WT:SOS1 IC50
T3 construct: purchased
T3 sequence (P01116 1-188 isoform P01116-2): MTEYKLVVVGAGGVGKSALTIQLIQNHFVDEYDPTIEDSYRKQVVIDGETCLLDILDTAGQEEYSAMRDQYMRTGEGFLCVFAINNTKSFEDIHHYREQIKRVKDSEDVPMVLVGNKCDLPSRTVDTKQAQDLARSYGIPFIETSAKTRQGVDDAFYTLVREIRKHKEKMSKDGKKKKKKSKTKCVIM
Procedure, shortened: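 Compounds tested as 3-fold, 11-point dilutions in duplicate at 1% DMSO final against the KRAS_WT/SOS1 binding system. IC50 derived by nonlinear regression fit.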

T1 sequence (P01116 1-188 isoform P01116-2 G12D): as the sequence (P01116 1-188 isoform P01116-2 G12D) above

SMILES | IC50 [1] | IC50 [2] | IC50 [3]
CN1CCC[C@H]1COc1nc(N2CC3CCC(C2)N3)c2cc(F)c(-c3cc(O)cc4ccccc34)c(F)c2n1 (single isomer, unassigned) [Compound 160a, (R or S) 4-(4-((1R,5S)-3,8-diazabicyclo[3.2.1]octan-3-yl)-6,8-difluoro-2-((S)-1-methylpyrrolidin-2-yl)methoxy)quinazolin-7-yl)naphthalen-2-ol dihydrochloride] | 0.0194 µM | 0.0151 µM | 0.152 µM
CC(COc1nc(N2CC3CCC(C2)N3)c2cc(Cl)c(-c3cc(O)cc4ccccc34)c(F)c2n1)CN1C2CCC1COC2 (single isomer, unassigned) [Compound 178a, 4-((7R or 7S)-2-((2R or 2S)-3-(3-oxa-8-azabicyclo[3.2.1]octan-8-yl)-2-methylpropoxy)-4-((1R,5S)-3,8-diazabicyclo[3.2.1]octan-3-yl)-6-chloro-8-fluoroquinazolin-7-yl)naphthalen-2-ol diformate] | 0.0216 µM | 0.0181 µM | 0.836 µM
CN(C)C1CN(c2nc(N3CCCNCC3)c3cc(Cl)c(-c4cc(O)cc5ccccc45)c(F)c3n2)C1 (single isomer, unassigned) [Compound 23, (S or R)-4-(6-chloro-4-(1,4-diaza-1-yl)-2-(3-(dimethylamino)azetidin-1-yl)-8-fluoroquinazolin-7-yl)naphthalen-2-ol] | 0.947 µM | 22.6 µM | 12.4 µM
CN(CCCOc1nc(N2CC3CCC(C2)N3)c2cc(Cl)c(-c3cc(O)cc4ccccc34)c(F)c2n1)CCC(O)CO (single isomer, unassigned) [Compound 148, 4-((3-((S or R)-4-((1R,5S)-3,8-diazabicyclo[3.2.1]octan-3-yl)-6-chloro-8-fluoro-7-(3-hydroxynaphthalen-1-yl)quinazolin-2-yl)oxy)propyl)(methyl)amino)butan-1,2-diol ditrifluoroacetate] | 0.0286 µM | 0.122 µM | 2.97 µM
CN(C)C1CN(c2nc(N3CC4(CCNC4)C3)c3cc(Cl)c(-c4cc(O)cc5ccccc45)c(F)c3n2)C1 (single isomer, unassigned) [Compound 8a, (R or S)-4-(6-chloro-2-(3-(dimethylamino)azetidin-1-yl)-8-fluoro-4-(2,6-diazaspiro[3.4]octan-2-yl)quinazolin-7-yl)naphthalen-2-ol] | 0.461 µM | 1.17 µM | 5.34 µM
C#Cc1c(F)ccc2cc(O)cc(-c3c(Cl)cc4c(N5CC6CCC(C5)N6)nc(OCCCN5C6CCC5COC6)nc4c3F)c12 (single isomer, unassigned) [Compound 255b, (4R or 4S)-4-(2-(3-(3-oxa-8-azabicyclo[3.2.1]octan-8-yl)propoxy)-4-(1R,5S)-3,8-diazabicyclo[3.2.1]octan-3-yl)-6-chloro-8-fluoroquinazolin-7-yl)-5-ethynyl-6-fluoronaphthalen-2-ol diformate] | 0.00432 µM | 0.0132 µM | 0.0756 µM
CCc1cccc2cc(O)cc(-c3c(F)cc4c(N5CC6CCC(C5)N6)nc(OC[C@@]56CCCN5C[C@H](F)C6)nc4c3F)c12 (single isomer, unassigned) [Compound 285a, (S or R)-4-(4-((1R,5S)-3,8-diazacyclo[3.2.1]octan-3-yl)-6,8-difluoro-2-((2R,7aS)-2-fluorotetrahydro-1H-pyrrolidin-7a(5H-yl)methoxy)quinazolin-7-yl)-5-ethylnaphthalen-2-ol dihydrochloride] | 0.0166 µM | 0.00912 µM | 0.0184 µM
CN1CCC[C@H]1COc1nc(N2CC3CCC(C2)N3)c2cc(Cl)c(-c3cc(O)c(F)c4ccccc34)c(F)c2n1 (single isomer, unassigned) [Compound 89a, (S or R)-4-(4-((1R,5S)-3,8-diazabicyclo[3.2.1]octan-3-yl)-6-chloro-8-fluoro-2-(S)-1-methylpyrrolidin-2-yl)methoxy)quinazolin-7-yl)-1-fluoronaphthalen-2-ol hydrochloride] | 0.0477 µM | 0.11 µM | 2.19 µM
Oc1cc(-c2c(Cl)cc3c(N4CC5CCC(C4)N5)nc(OCCCN4CCC4)nc3c2F)c2ccccc2c1 (single isomer, unassigned) [Compound 59a, 4-((S or R)-2-(3-(azetidin-1-yl)propoxy)-4-((1R,5S)-3,8-diazabicyclo[3.2.1]octan-3-yl)-6-chloro-8-fluoroquinazolin-7-yl)naphthalen-2-ol] | 0.0454 µM | 0.182 µM | 2.08 µM
NCCCCOc1nc(N2CC3CCC(C2)N3)c2cc(Cl)c(-c3cc(O)cc4ccccc34)c(F)c2n1 (single isomer, unassigned) [Compound 95, 4-((S or R)-2-(4-aminobutoxy)-4-((1R,5S)-3,8-diazabicyclo[3.2.1]octan-3-yl)-6-chloro-8-fluoroquinazolin-7-yl)naphthalen-2-ol dihydrochloride] | 0.0482 µM | 0.284 µM | 6.67 µM
Oc1cc(-c2c(Cl)cc3c(N4CC5CCC(C4)N5)nc(OCCCN4CC5CCC(C4)O5)nc3c2F)c2ccccc2c1 (single isomer, unassigned) [Compound 188, 4-((7R or S)-2-(3-(8-oxa-3-azabicyclo[3.2.1]octan-3-yl)propoxy)-4-((1R,5S)-3,8-diazabicyclo[3.2.1]octan-3-yl)-6-chloro-8-fluoroquinazolin-7-yl)naphthalen-2-ol formate] | 0.0356 µM | 0.133 µM | 1.02 µM

Further lines, results first:

IC50 [1] | IC50 [2] | IC50 [3] | SMILES
0.0365 µM | 0.0727 µM | 2.67 µM | CC(C)(COc1nc(N2CC3CCC(C2)N3)c2cc(Cl)c(-c3cc(O)cc4ccccc34)c(F)c2n1)CN1C2CCC1COC2 (single isomer, unassigned) [Compound 120, 4-((7S or R)-2-(3-(3-oxa-8-azabicyclo[3.2.1]octan-8-yl)-2,2-dimethylpropoxy)-4-((1R,5S)-3,8-diazabicyclo[3.2.1]octan-3-yl)-6-chloro-8-fluoroquinazolin-7-yl)naphthalen-2-ol dihydrochloride]
0.0178 µM | 0.0598 µM | 0.833 µM | Oc1cc(Cl)c(C2CC2)c(-c2c(Cl)cc3c(N4C[C@H]5CC[C@@H](C4)N5)nc(OCCCN4C5CCC4COC5)nc3c2F)c1 (single isomer, unassigned) [Compound 197a, 3-((7R or 7S)-2-(3-(3-oxa-8-azabicyclo[3.2.1]octan-8-yl)propoxy)-4-((1R,5S)-3,8-diazabicyclo[3.2.1]octan-3-yl)-6-chloro-8-fluoroquinazolin-7-yl)-5-chloro-4-cyclopropylphenol formate]
0.0191 µM | 0.0537 µM | 0.504 µM | CN1CC[C@H]1COc1nc(N2CC3CCC(C2)N3)c2cc(Cl)c(-c3cc(O)cc4ccccc34)c(F)c2n1 (single isomer, unassigned) [Compound 100, 4-((S or R)-4-((1R,5S)-3,8-diazabicyclo[3.2.1]octan-3-yl)-6-chloro-8-fluoro-2-(S)-1-methylazetidin-2-yl)methoxy)quinazolin-7-yl)naphthalen-2-ol bitrifluoroacetate]
0.0541 µM | 0.0385 µM | 0.105 µM | Oc1cc(Cl)c(C2CC2)c(-c2c(Cl)cc3c(N4CC5CCC(C4)N5)nc(OC[C@@]45CCCN4C[C@H](F)C5)nc3c2F)c1 (single isomer, unassigned) [Compound 198b, 3-((S or R)-4-((1R,5S)-3,8-diazabicyclo[3.2.1]octan-3-yl)-6-choro-8-fluoro-2-((2R,7aS)-2-fluorotetrahydro-1H-pyrrolin-7a(5H)-yl)methoxy)quinazolin-7-yl)-5-chloro-4-cyclopropylphenol formate]
0.0274 µM | 0.0662 µM | 1.35 µM | Oc1cc(-c2c(Cl)cc3c(N4CC5CCC(C4)N5)nc(OCCCN4CC5CCC4CO5)nc3c2F)c2ccccc2c1 (single isomer, unassigned) [Compound 187a, (R or S)-4-(2-(3-((1S,4S or 1R,4R)-2-oxa-5-azabicyclo[2.2.2]octan-5-yl)propoxy)-4-((1R,5S)-3,8-diazabicyclo[3.2.1]octan-3-yl)-6-chloro-8-fluoroquinazolin-7-yl)naphthalen-2-ol diformate]
0.0873 µM | 0.256 µM | 3.93 µM | C[C@H]1COC[C@H](C)N1CCCOc1nc(N2CC3CCC(C2)N3)c2cc(Cl)c(-c3cc(O)cc4ccccc34)c(F)c2n1 (single isomer, unassigned) [Compound 180, 4-((R or S)-4-((1R,5S)-3,8-diazabicyclo[3.2.1]octan-3-yl)-6-chloro-2-(3-((3S,5S)-3,5-dimethylmorpholinyl)propoxy)-8-fluoroquinazolin-7-yl)naphthalen-2-ol diformate]
0.0397 µM | 0.15 µM | 1.05 µM | CC(COc1nc(N2CC3CCC(C2)N3)c2cc(Cl)c(-c3cc(O)cc4ccccc34)c(F)c2n1)CN1C2CCC1COC2 (single isomer, unassigned) [Compound 178b, 4-((7R or 7S)-2-((2S or 2R)-3-(3-oxa-8-azabicyclo[3.2.1]octan-8-yl)-2-methylpropoxy)-4-((1R,5S)-3,8-diazabicyclo[3.2.1]octan-3-yl)-6-chloro-8-fluoroquinazolin-7-yl)naphthalen-2-ol dicarboxylate]
0.0195 µM | 0.0186 µM | 0.569 µM | C[C@@H](COc1nc(N2CC3CCC(C2)N3)c2cc(Cl)c(-c3cc(O)cc4ccccc34)c(F)c2n1)CN1C[C@H](C)OC[C@H]1C (single isomer, unassigned) [Compound 237, 4-((S or R)-4-((1R,5S)-3,8-diazacyclo[3.2.1]octan-3-yl)-6-chloro-2-((R)-3-((2S,5R)-2,5-dimethylmorpholinyl)-2-methylpropoxy)-8-fluoroquinazolin-7-yl)naphthalen-2-ol formate]
